In patent publication US20120114714A1, “METHOD FOR THE TREATMENT AND PREVENTION OF ERECTILE DYSFUNCTION” (priority 2006, published 2012):

Assays:
[1] = system: penile corpus cavernosum smooth muscles; experiment: Compound 1-induced relaxation after endothelium removal (CHAPS) and HO-2 inactivation (ZnPP); design: species or system New Zealand white rabbits
Text: To ascertain the pharmacological mechanism the compound 1 acts on the relaxation of the penile corpus cavernosum smooth muscles in the New Zealand white rabbits, the smooth muscle sections were relaxed by the treatment of the compound 1 and endothelial cells were then removed from the smooth muscle sections using 10^−4 M of CHAPS (3-[(3-cholamidopropyl) dimethylammonio]-1-propanesulfonate, 0.3% in buffer solution; Sigma) as a lysis buffer. Subsequently, as another neurotransmitter, zinc-protoporphyrin-IX (ZnPP) was administrated thereto, which inactivates heme oxygenase-2 (HO-2) that produces carbon monoxide (CO) that is in vivo produced by blood and acts as a vasodilator.

[2] = system: endothelial nitric oxide synthase (eNOS); experiment: Phosphorylation of eNOS in HUVEC cells (anti-pS1177 eNOS); format: cell-based; conditions: compound 1 10 uM, FIG. 3
Procedure: In order to ascertain whether the compound 1 acting as an AMPK activator is implicated in the production of NO, phosphorylation to promote the activity of endothelial nitric oxide synthase (eNOS) was measured. So as to confirm the phosphorylation of eNOS through the compound 1, HUVEC cells were seeded on a 60 mm plate at 1×10^5 in an EBM2/5% FBS medium and cultured for 24 hours. The medium was replaced by a serum-free EBM2 medium and the treatment with the compound 1 (10 uM) was performed for a predetermined period. An anti-pS1177 eNOS was used to measure the phosphorylated eNOS.

[3] = system: penile corpus cavernosum smooth muscles; experiment: Compound 1-induced relaxation upon blocking of the NO pathway (L-NAME, methylene blue); design: species or system New Zealand white rabbit; conditions: FIG. 4
Text: To confirm the effects of the compound 1 on relaxation of the penile corpus cavernosum smooth muscles upon blocking of a NO pathway, the penile corpus cavernosum smooth muscle sections were contracted by the treatment of phenylephrine, relaxed by the treatment of the compound 1, and then sequentially treated with methylene blue as an inhibitor against guanylate cyclase that helps production of c-GMP and with L-NAME (L-nitroarginine methyl ester) that inhibits production of NO via inhibitory activity against eNOS.

[4] = system: diabetes-induced rats; experiment: Internal pressure of penile corpus cavernosum after electrostimulation in STZ diabetes-induced rats; format: in vivo, Sprague-Dawley white rats; conditions: oral for 5 weeks, AICAR 500 mg/kg, compound 1 250 mg/kg, FIG. 7
Text: In order to confirm in vivo whether penile erection of a diabetes-induced rat has an influence on the internal pressure of the penile corpus cavernosum, 23 Sprague-Dawley white rats (about 300 g) are divided into a normal control group (Group I, n=6), a diabetes-induced control group (Group II, n=4), a group with administration of AICAR following the diabetes-induction (Group III, n=6), and a group with administration of the compound 1 (Group IV, n=7).
STZ (streptozotocin) was used to induce diabetes, and the AICAR and the compound 1 were orally administered in dosages of 500 mg/kg and 250 mg/kg, respectively, for 5 weeks. Each of the experimental groups was systemically anesthetized, intubated into one-side of the carotid in order to measure blood pressure, a electrostimulation-purpose catheter was set in the penile corpus cavernosum nerves in the cavum pelvis, and the internal pressure of the penile corpus cavernosum was measured. Electrostimulation was applied to the group for one minute (frequency: 10 Hz, delay: 4 ms, duration: 5 ms, volt: 3V). An increase in internal pressure of the groups was measured, and the groups were compared with one another in view of the increase in internal pressure.

[5] = system: penile corpus cavernosum smooth muscles; experiment: Relaxation of phenylephrine-contracted penile corpus cavernosum smooth muscle sections in organ bath; design: species or system New Zealand white rabbit; conditions: for Relaxation (%): conc. 10^−4 M, section contracted with 10^−4 M phenylephrine
Text: A New Zealand white rabbit (2.5 to 3.0 kg) was anesthetized and the overall penis was then dissected from the rabbit. The penile corpus cavernosum smooth muscles were separated from the tunica albuginea in a low-temperature Tyrode's solution aerated with a 95% O2-5% CO2 gas mixture, while observing with a dissection microscope, to prepare a penis section. The penis section was fixed in an organ bath (10 cc) containing a Tyrode's solution. At this time, the one end of the penis section was fixed on the bottom of the organ bath, and a variation in isometric tension of the penile corpus cavernosum smooth muscles was then measured with a force displacement transducer at the other end thereof. After reaching an equilibrium state, the penile section was contracted by treatment of 10^−4 M phenylephrine.
According to the drug used to treat the penile section, the experimental groups used herein were divided into six groups, i.e., i) a group with administration of SNP as a NO donor, ii) a group with administration of Zaprinast as an inhibitor against PDE-5, an enzyme that mediates hydrolysis of c-GMP, a group with administration of acetylcholine that acts on the nervous system, iv) a group with administration of metformin, one of conventional AMPK activators, v) a group with administration of AICAR (5-aminoimidazole-4-carboxamide-1-beta-D-ribofuranoside), and vi) a group with administration of the compound 1 according to the present invention. These groups were compared with one another, in view of relaxation (%) of the penile corpus cavernosum.

[6] = target: Phosphodiesterase type 5 (PDE 5) (Homo sapiens, UniProt O76074); conditions: cited from earlier work

CC1(C)CCC2=C(O1)c1ccccc1C(=O)C2=O [Compound 1, β-lapachone]
relaxation of the CHAPS-administration group (no Znpp) relative to relaxation of the compound 1-administration group ([1]; 10^−4 M CHAPS, endothelial cells removed): about 45% | relaxation of the ZnPP-administration group ([1]; CHAPS plus zinc-protoporphyrin-IX (ZnPP), FIGS. 5 and 6): almost completely inhibited | phosphorylation of eNOS (p-eNOS) at 2 hours ([2]; 2 hours): not observed | time at which phosphorylation of eNOS (p-eNOS) is maximized [2]: 30 min | relaxation caused by the compound 1 after L-NAME and methylene blue ([3]; 10^−3 M of L-NAME and 10^−3 M of methylene blue): partially inhibited | inhibition of relaxation by methylene blue compared to the L-NAME-treatment group ([3]; methylene blue 10^−4 M): more greatly inhibited | average of the highest internal pressure increase of the penile corpus cavernosum after electrostimulation [4]: 9.7±5.1 mmHg | Relaxation (%) [5]: 92% | relaxation effects of penile corpus cavernosum smooth muscles (FIG. 2) ([5]; concentration range of 10^−9 to 10^−7 M): about double that of the SNP-administration group

CC(=O)OCC[N+](C)(C)C [Acetylcholine, acetylcholine]
Relaxation (%) [5]: 21%

NC(=O)c1ncn([C@@H]2O[C@H](CO)[C@@H](O)[C@H]2O)c1N [AICAR, 5-aminoimidazole-4-carboxamide-1-beta-D-ribofuranoside, reference compound]
average of the highest internal pressure increase of the penile corpus cavernosum after electrostimulation [4]: 4.3±1.0 mmHg | Relaxation (%) [5]: 10%

CN(C)C(=N)N=C(N)N [Metformin, metformin]
Relaxation (%) [5]: 0.1%

CCCOc1ccccc1-c1nc2nn[nH]c2c(=O)[nH]1 [Zaprinast]
Relaxation (%) [5]: 36%

CCCc1nn(C)c2c(=O)[nH]c(-c3cc(S(=O)(=O)N4CCN(C)CC4)ccc3OCC)nc12 [Viagra]
selectivity of PDE 5 inhibition [6]: ≥ 4,000 folds
